Structures can show the parent of a compound that is named as a salt.
Tests used:
[1] = tested on: bacterial strains that express KPC β-lactamases; experiment: Synergy MIC / standard BLI potentiation MIC assay, strains expressing KPC β-lactamases; type: cell-based; conditions: for at least one KPC strain and/or a better spectrum of activity against KPC strains than Avibactam; in the presence of a β-lactam
Description: (§1) Unless otherwise indicated, the activity of the BLI compounds can be described by the MIC value obtained from a Synergy MIC assay or a BLI potentiation assay (e.g as described herein), both of which are run in the presence of a β-lactam.
(§2) The experimental protocol was performed according to Clinical and Laboratory Standards Institute (CLSI) guidelines with modifications as described below (CLSI guidelines can be derived from the CLSI document M07-A9 published in January 2012: “Methods for Dilution Antimicrobial Susceptibility Tests for Bacteria That Grow Aerobically; Approved Standard-Ninth Edition”).
(§3) To prepare for MIC testing, frozen glycerol stocks of clinical isolates (Klebsiella pneumoniae, Eschericia coli, Enterobacter spp, Citrobacter spp, or Pseudomonas aeruginosa) were used to streak for isolated colonies on rich, non-selective, tryptic soy agar containing 5% sheep's blood (TSAB). Frozen glycerol stocks of laboratory engineered, isogenic E. coli strains, which contain cloned β-lactamase expressing plasmids were used to streak for isolated colonies on rich, selective LB agar supplemented with 25 μg/mL tetracycline to maintain the plasmid. All strains were incubated at 37° C. for 18-24 hrs.
(§4) On the day of testing, primary cultures were started by scraping off 5-10 colonies from the TSAB plates containing clinical strains or the tetracycline supplemented LB plates containing engineered strains. The clinical strain material was suspended in ˜5 mL of cation adjusted Mueller Hinton Broth (CAMHB) in 14 mL culture tubes. The engineered strain material was suspended in CAMHB (supplemented with 25 μg/mL tetracycline) in 14 mL culture tubes. All strains were incubated at 37° C. with aeration (200 rpm) for ˜2 hrs until the optical density at 600 nm (OD600) was ≧0.1.
(§5) The two compound components of the assay were each diluted in CAMHB and added to the 96-well broth microdilution assay plates. 50 μL of the β-lactam was added to each well of the assay plate in 2-fold dilutions with final concentrations ranging from 128 to 0.13 μg/mL. 25 μL of the BLI compound was added to all wells in the broth microdilution plates at a final concentration of 4 μg/mL. Inoculum cultures were prepared by standardizing the primary cultures to OD600=0.1 and then adding 20 μL of the adjusted primary culture per 1 mL CAMHB for clinical strains or CAMHB (supplemented with tetracycline at 100 μg/mL) for engineered strains, so that the final inoculum density was ˜10^5 colony forming units per milliliter. Diluted inoculum cultures were used to inoculate 25 μl, per well in 96-well broth microdilution assay plates. The final volume of each well was 100 μL and contained a β-lactam at different concentrations, a BLIcompound at 4 μg/mL concentration, the bacterial culture at an OD600 of approximately 0.001 and when necessary tetracycline at 25 μg/mL.
(§6) Plates were incubated for 18-20 hours at 37° C. with aeration (200 rpm). Following incubation, growth was confirmed visually placing plates over a viewing apparatus (stand with a mirror underneath) and then OD600 was measured using a SpectraMax 340PC384 plate reader (Molecular Devices, Sunnyvale, Calif.). Growth was defined as turbidity that could be detected with the naked eye or achieving minimum OD600 of 0.1. MIC values were defined as the lowest concentration producing no visible turbidity.
(§7) The synergy MIC (sMIC) assay determines the concentration of the BLI required to potentiate the activity of a fixed concentration of a β-lactam antibiotic against β-lactamase producing bacterial strains. The experimental protocol was performed according to Clinical and Laboratory Standards Institute (CLSI) guidelines with modifications as described below (CLSI guidelines can be derived from the CLSI document M07-A9 published in January 2012: “Methods for Dilution Antimicrobial Susceptibility Tests for Bacteria That Grow Aerobically; Approved Standard-Ninth Edition”). […]

[2] = tested on: bacterial strains that express the class D cephalosporinase OXA-15; experiment: Synergy MIC / standard BLI potentiation MIC assay, strains expressing OXA-15;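 note: more active means a lower MIC or sMIC than Avibactam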; type: cell-based, E. coli; conditions: in the presence of a β-lactam; comparator Avibactam (CCC)
Description: as §1, §2, §3, §4, §5, §6, §7

SMILES: O=C1N2C[C@@H](CC[C@H]2c2nnco2)N1OS(=O)(=O)O [Compound 701, (2S,5R)-2-(1,3,4-oxadiazol-2-yl)-7-oxo-1,6-diazabicyclo[3.2.1]octan-6-yl hydrogen sulfate]
- activity against bacterial strains that express KPC β-lactamase compared with Avibactam [1]: more active than Avibactam
- activity against bacterial strains that express OXA-15 β-lactamase compared with Avibactam [2]: more active than Avibactam

SMILES: NCc1nnc([C@@H]2CC[C@@H]3CN2C(=O)N3OS(=O)(=O)O)o1 [Compound 702, (2S,5R)-2-(5-(aminomethyl)-1,3,4-oxadiazol-2-yl)-7-oxo-1,6-diazabicyclo[3.2.1]octan-6-yl hydrogen sulfate]
- activity against bacterial strains that express KPC β-lactamase compared with Avibactam [1]: more active than Avibactam
- activity against bacterial strains that express OXA-15 β-lactamase compared with Avibactam [2]: more active than Avibactam

SMILES: NCCc1nnc([C@@H]2CC[C@@H]3CN2C(=O)N3OS(=O)(=O)O)o1 [Compound 703, (2S,5R)-2-(5-(2-aminoethyl)-1,3,4-oxadiazol-2-yl)-7-oxo-1,6-diazabicyclo[3.2.1]octan-6-yl hydrogen sulfate]
- activity against bacterial strains that express KPC β-lactamase compared with Avibactam [1]: more active than Avibactam
- activity against bacterial strains that express OXA-15 β-lactamase compared with Avibactam [2]: more active than Avibactam

SMILES: N=C(N)NCCc1nnc([C@@H]2CC[C@@H]3CN2C(=O)N3OS(=O)(=O)O)o1 [Compound 705, (2S,5R)-2-(5-(2-guanidinoethyl)-1,3,4-oxadiazol-2-yl)-7-oxo-1,6-diazabicyclo[3.2.1]octan-6-yl hydrogen sulfate]
- activity against bacterial strains that express KPC β-lactamase compared with Avibactam [1]: more active than Avibactam
- activity against bacterial strains that express OXA-15 β-lactamase compared with Avibactam [2]: more active than Avibactam

SMILES: NC(=O)c1nnc([C@@H]2CC[C@@H]3CN2C(=O)N3OS(=O)(=O)O)o1 [Compound 706, (2S,5R)-2-(5-carbamoyl-1,3,4-oxadiazol-2-yl)-7-oxo-1,6-diaza-bicyclo[3.2.1]octan-6-yl hydrogen sulfate]
- activity against bacterial strains that express KPC β-lactamase compared with Avibactam [1]: more active than Avibactam
- activity against bacterial strains that express OXA-15 β-lactamase compared with Avibactam [2]: more active than Avibactam

SMILES: O=C1N2C[C@@H](CC[C@H]2c2nnc(C3CNC3)o2)N1OS(=O)(=O)O [Compound 708, (2S,5R)-2-(5-(azetidin-3-yl)-1,3,4-oxadiazol-2-yl)-7-oxo-1,6-diazabicyclo[3.2.1]octan-6-yl hydrogen sulfate]
- activity against bacterial strains that express KPC β-lactamase compared with Avibactam [1]: more active than Avibactam
- activity against bacterial strains that express OXA-15 β-lactamase compared with Avibactam [2]: more active than Avibactam

SMILES: N=C(N)N1CC(c2nnc([C@@H]3CC[C@@H]4CN3C(=O)N4OS(=O)(=O)O)o2)C1 [Compound 709, (2S,5R)-2-(5-(1-carbamimidoylazetidin-3-yl)-1,3,4-oxadiazol-2-yl)-7-oxo-1,6-diazabicyclo[3.2.1]octan-6-yl hydrogen sulfate]
- activity against bacterial strains that express KPC β-lactamase compared with Avibactam [1]: more active than Avibactam
- activity against bacterial strains that express OXA-15 β-lactamase compared with Avibactam [2]: more active than Avibactam

SMILES: O=C1N2C[C@@H](CC[C@H]2c2nnc(C3CCNC3)o2)N1OS(=O)(=O)O (stereo partly drawn) [Compound 710, (2S,5R)-7-oxo-2-(5-(pyrrolidin-3-yl)-1,3,4-oxadiazol-2-yl)-1,6-diazabicyclo[3.2.1]octan-6-yl hydrogen sulfate]
- activity against bacterial strains that express KPC β-lactamase compared with Avibactam [1]: more active than Avibactam
- activity against bacterial strains that express OXA-15 β-lactamase compared with Avibactam [2]: more active than Avibactam

SMILES: NC1CCN(CCc2nnc([C@@H]3CC[C@@H]4CN3C(=O)N4OS(=O)(=O)O)o2)CC1 [Compound 775, (2S,5R)-2-(5-(2-(4-aminopiperidin-1-yl)ethyl)-1,3,4-oxadiazol-2-yl)-7-oxo-1,6-diazabicyclo[3.2.1]octan-6-yl hydrogen sulfate]
- activity against bacterial strains that express KPC β-lactamase compared with Avibactam [1]: more active than Avibactam

— patent publication US8940897B2, “1,3,4-oxadiazole and 1,3,4-thiadiazole β-lactamase inhibitors” (priority 2012, dated 2015)
